Laboratory results reported in paper PMC12811501, “A plant-derived antimicrobial peptide with multiple mechanisms of action exhibiting antibacterial and antibiofilm activities comparable to or superior to polymyxin B” (Current Research in Microbial Sciences, 2025).
In brackets after ≈: the same amount, converted by molar mass. Where two headings read alike, the source gives them in different places. Residues, ends and D or L forms follow the SMILES beside them. No end group written: not given here.

Experiments:
[1] = tested on: Acinetobacter baumannii pre-formed biofilm; assay: microbe, parasite or virus in culture; assay type: cell-based; details: for degradation of pre-formed biofilm: A. baumannii biofilm pre-formed 24 h, 24 h of treatment, Crystal Violet OD550; for MBC: A. baumannii biofilm pre-formed 24 h in MHB
Protocol: For the biofilm eradication assay the difference was at the beginning of the experiments when bacteria were pre-cultured for 24 h or 72 h in MHB with a starting OD600 = 0.01. Then bacterial suspensions were removed from the wells followed by washing three times with 200 µl of 1/2 MHB. Subsequently fresh 1/10 MHB was added to the wells containing the respective dilutions of NCR169C17–38, meropenem or polymixin B and the treatment lasted either 3 h or 24 h. Experiments were done in three biological replicates.
To assess whether the NCR169C17–38 peptide or the tested antibiotics could eradicate pre-formed biofilms, A. baumannii was first cultured in MHB for 24 h, then treated with NCR169C17–38, meropenem or polymyxin B for either 3 h or 24 h, using the same concentration range as in the previous experiment. Both bacterial survival within the pre-formed biofilm and the amount of residual biofilm were assessed. […] In contrast, neither of the two antibiotics completely eliminated the bacteria within the tested concentration range. […] This 24 h of treatment was repeated on mature biofilm (pre-formed for 72 h) and the results were very similar (Supplementary Fig. 1.).

Acinetobacter baumannii = assay: microbe, parasite or virus in culture; assay type: cell-based; details: A. baumannii; for MBC: 24 h of treatment in MHB (method: 1/10 MHB), detected at the end of the biofilm inhibition test, read-out: MBC, Inhibition test after 24 h
Protocol: For the biofilm inhibition assay the antimicrobial activity test was done in 1/10 MHB using A. baumannii treated with the respective dilutions of NCR169C17–38, meropenem or polymixin B for 24 h. After taking the 5 μl samples at the end of the treatment and placed on LB agar to detect bacterial growth, the rest of the grown bacterial suspensions were discarded from the plate and the remaining biofilm on the walls of the plate was then washed three times with sterile water and stained using 1 % Crystal Violet (CV) for 15 min to visualize the produced biofilm. The non-adherent CV dye was then removed by washing with water three times. The plate was left for complete drying, then the biofilm-bound CV dye was dissolved in 200 µl of 30 % acetic-acid with shaking over 15 min. The absorbance was measured at OD550 using a HIDEX Plate Reader (Hidex Sense Microplate Reader with Plate Reader Software version 5064, Hidex, Finland). All measurements were repeated three times.
We examined the capacity of NCR169C17–38 to inhibit biofilm formation by Acinetobacter baumannii, a pathogen well known for its robust biofilm production and high level of antibiotic resistance. […] Additionally, at the end of the experiment we determined the quantity of the biofilm and thereby evaluated their ability to inhibit biofilm formation during culturing the bacteria in the presence of different concentrations of the agents (Fig. 1.A). We tested concentrations of NCR169C17–38 ranging from 25 μM to 0.4 μM, meropenem from 100 μM to 1.6 μM and polymyxin B from 3.1 μM to 0.05 μM.

E. coli = assay: microbe, parasite or virus in culture; details: for FBC-A: (MBC of Drug A in combination)/(MBC of Drug A alone), combination with NCR169C17–38 (Drug B), checkerboard; for FBC-A / FBC-B / FBC / Action / FBC-A (µM): concentration of Drug A for the indicated action / FBC-B (µM): concentration of Drug B for the indicated action: E. coli; for FBC-A / FBC-A (µM): concentration of Drug A for the indicated action: 3 h 37 °C; for FBC-B: (MBC of NCR169C17–38 in combination)/(MBC alone), value refers to NCR169C17–38 (Drug B) combined with the Drug A; for MBC: Escherichia coli, read-out: Drug A MBC; for FBC: FBC index = FBC-A + FBC-B, Drug A combined with NCR169C17–38; for Action: interaction of Drug A with NCR169C17–38 by FBC index; for FBC-A (µM): concentration of Drug A for the indicated action / FBC-B (µM): concentration of Drug B for the indicated action: value in brackets; for FBC-A (µM): concentration of Drug A for the indicated action: Drug A in combination with NCR169C17–38, checkerboard; for FBC-B (µM): concentration of Drug B for the indicated action: concentration of NCR169C17–38 (Drug B) combined with Drug A
Protocol: Streptomycin was tested at concentrations ranging from 25 μM to 0.4 μM, meropenem from 200 μM to 3.1 μM, and polymyxin B from 6.3 μM to 0.1 μM. NCR335N1–19 was tested in a concentration range from 3.1 μM to 0.05 μM, while NCR335C13–33 from 12.5 μM to 0.2 μM. […] The initial E. coli density in each well were adjusted to OD600 = 0.01 corresponding to ∼10^6 bacteria/ml. […] The effectiveness of combination treatments was measured using the fractional bactericidal concentration (FBC) index, which is a metric used to assess the interaction between antimicrobial agents, determining whether their combined effect is synergistic, additive, or antagonistic. First, the MBC values of polymyxin B, meropenem, streptomycin, NCR335N1–19, and NCR335C13–33 were determined in E. coli. Subsequently, their combinations with NCR169C17–38 were examined using the FBC index. FBC = FBCA + FBCB. FBCA = (MBCA in combination) / (MBCA alone); FBCB = (MBCB in combination) / (MBCB alone). Experiments were done in three biological replicates.
The use of multiple antimicrobial agents can simultaneously target different physiological pathways in microbial cells, reducing the likelihood of resistance development and increasing treatment efficacy. To explore this strategy, we assessed the combined antibacterial effects of the NCR169C17–38 peptide with several antibiotics - specifically polymyxin B, meropenem, and streptomycin - against E. coli. […] Combination treatments were then performed using the standard checkerboard titration method, with each agent co-administered with NCR169C17–38.

[2] = assay type: physicochemical; details: for solubility / visible turbidity upon peptide addition: pH 7.4

In the case of C[C@@H](O)[C@H]1C(=O)N2C(C(=O)O)=C(S[C@@H]3CN[C@H](C(=O)N(C)C)C3)[C@H](C)[C@H]12 [Meropenem], the “degradation of pre-formed biofilm” value [1] is reported as “successful even at sub-MBC level”, the MBC ([1]; Acinetobacter baumannii, 3 h treatment (method: 1/10 MHB), read-out: MBC, Eradication test after 3 h) is reported as greater than 100 µM and the MBC ([1]; Acinetobacter baumannii, 24 h treatment (method: 1/10 MHB), read-out: MBC, Eradication test after 24 h) is reported as greater than 100 µM. For the same compound, the “inhibition of biofilm formation (Crystal Violet, OD550)” value (Acinetobacter baumannii; 24 h treatment, NCR169C17–38 25-0.4 μM, meropenem 100-1.6 μM, polymyxin B 3.1-0.05 μM) was “remaining effective even at lower doses”, the MBC (Acinetobacter baumannii; Acinetobacter baumannii) was 50 µM (≈ 19.2 µg/mL) and the FBC-A (E. coli) was 0.25. The FBC-B (E. coli) was 0.25, the MBC (E. coli; 3 h) was 200 µM and the FBC (E. coli) was 0.5. For the same compound, the Action (E. coli) was “Synergism (< 0.5: synergism)”, the “FBC-A (µM): concentration of Drug A for the indicated action” value (shortened to “FBC-A (µM): concentration”) (E. coli) was 50 µM and the “FBC-B (µM): concentration of Drug B for the indicated action” value (“FBC-B (µM): concentration of Drug B” for short) (E. coli) was 0.4 µM.

For CC[C@H](C)[C@H](NC(=O)CNC(=O)[C@H](CS)NC(=O)[C@H](Cc1ccc(O)cc1)NC(=O)[C@H](CCCCN)NC(=O)[C@@H](NC(=O)[C@H](Cc1c[nH]cn1)NC(=O)CNC(=O)[C@@H](NC(=O)[C@H](CC(=O)O)NC(=O)[C@@H](N)CCC(=O)O)[C@@H](C)CC)[C@@H](C)CC)C(=O)N[C@H](C(=O)N[C@@H](CC(=O)O)C(=O)N[C@@H](CC(=O)O)C(=O)N[C@@H](CS)C(=O)N[C@@H](Cc1ccc(O)cc1)C(=O)N[C@@H](CCCCN)C(=O)N[C@@H](CO)C(=O)N[C@@H](CCCCN)C(=O)N[C@@H](CCCCN)C(=O)N1CCC[C@H]1C(=O)N[C@@H](CC(C)C)C(=O)N[C@@H](Cc1ccccc1)C(=O)N[C@@H](CCCCN)C(=O)N[C@H](C(=O)N[C@@H](Cc1c[nH]c2ccccc12)C(=O)N[C@@H](CCCCN)C(=O)N[C@@H](CS)C(=O)N[C@H](C(=O)N[C@@H](CCC(=O)O)C(=O)N[C@@H](CC(N)=O)C(=O)N[C@H](C(=O)N[C@@H](CS)C(=O)N[C@H](C(=O)N[C@@H](CC(C)C)C(=O)N[C@@H](Cc1c[nH]c2ccccc12)C(=O)N[C@@H](Cc1ccc(O)cc1)C(=O)N[C@@H](CCCCN)C(N)=O)C(C)C)C(C)C)C(C)C)[C@@H](C)CC)C(C)C [NCR169] (H-EDIGHIKYCGIVDDCYKSKKPLFKIWKCVENVCVLWYK-NH2), the “solubility / visible turbidity” value ([2]; pH 5.8) was “eliminating visible turbidity” and the “solubility / visible turbidity upon peptide addition” value [2] was “visible white turbidity”.

With CC[C@H](C)[C@H](NC(=O)[C@@H]1CCCN1C(=O)[C@@H](NC(=O)[C@H](CS)NC(=O)[C@H](Cc1ccc(O)cc1)NC(=O)[C@H](CO)NC(=O)[C@H](CCCCN)NC(=O)[C@H](CCCNC(=N)N)NC(=O)[C@H](CS)NC(=O)[C@H](CCCNC(=N)N)NC(=O)[C@@H](NC(=O)[C@H](CC(N)=O)NC(=O)[C@H](C)NC(=O)[C@H](CCCNC(=N)N)NC(=O)[C@H](CCCNC(=N)N)NC(=O)[C@H](CC(C)C)NC(=O)[C@H](CCCCN)NC(=O)[C@@H]1CCCN1C(=O)[C@H](CS)NC(=O)[C@H](CC(=O)O)NC(=O)[C@@H](N)CCCCN)C(C)C)C(C)C)C(N)=O [NCR335C13–33] (H-KDCPKLRRANVRCRKSYCVPI-NH2; N-terminus and C-terminus assumed) the “Drug A MBC” value (E. coli; 3 h) was 12.5 µM, the FBC-A (E. coli) was 0.5 and the FBC-B (E. coli) was 0.03. For the same compound, the FBC (E. coli) was 0.5, the Action (E. coli) was “Synergism (< 0.5: synergism)” and the “FBC-A (µM): concentration” value (E. coli) was 6.25 µM. The “FBC-B (µM): concentration of Drug B” value (E. coli) was 0.048 µM.

For [H]/N=C(/N)N[C@H]1[C@H](O)[C@@H](O)[C@H](O[C@@H]2O[C@@H](C)[C@](O)(C=O)[C@H]2O[C@@H]2O[C@@H](CO)[C@H](O)[C@@H](O)[C@@H]2NC)[C@@H](N/C(N)=N\[H])[C@@H]1O [Streptomycin], the FBC-A (E. coli) was 0.5, the FBC-B (E. coli) was 0.5 and the MBC (E. coli; 3 h) was 3.12 µM. The FBC (E. coli) was 1, the Action (E. coli) was “Additive (0.5 < FBC < 1.0: additive)” and the “FBC-B (µM): concentration of Drug B” value (E. coli) was 0.8 µM.

In the case of “EDIGHIKYSGIVDDSYKSKKPLFKIWKSVENVSVLWYK-NH2 [NCR169-C9,15,28,33/S]”, the “solubility / visible turbidity upon peptide addition” value [2] is reported as “no visible turbidity”.

With Polymyxin B the “degradation of pre-formed biofilm” value [1] was “required at least their MBC or higher concentrations”, the MBC ([1]; 3 h treatment (method: 1/10 MHB), read-out: MBC, Eradication test after 3 h) was greater than 3.2 µM and the MBC ([1]; 24 h treatment (method: 1/10 MHB), read-out: MBC, Eradication test after 24 h) was greater than 3.2 µM. For the same compound, the “eradication of pre-formed biofilms at sub-MBC concentration” value ([1]; A. baumannii, as stated in the abstract) was “not observed”, the MBC (Acinetobacter baumannii) was 0.8 µM and the FBC-A (E. coli) was 0.125. For the same compound, the FBC-B (E. coli) was 0.25, the “Drug A MBC” value (E. coli; Drug A alone, E. coli ~10^6 bacteria/ml, MHB/PPB mixture, 3 h at 37 °C, plated on LB agar, three biological replicates) was 0.8 µM and the FBC (E. coli) was 0.38. The Action (E. coli) was “Synergism (< 0.5: synergism)”, the “FBC-A (µM): concentration” value (E. coli) was 0.1 µM and the “FBC-B (µM): concentration of Drug B” value (E. coli) was 0.4 µM.

With RLNTTFRPLNFKMLRFWGQ-NH2 [NCR335N1–19] the “Drug A MBC” value (E. coli; 3 h) was 3.125 µM, the FBC-A (E. coli) was 0.5 and the FBC-B (E. coli) was 0.01. The FBC (E. coli) was 0.5, the Action (E. coli) was “Synergism (< 0.5: synergism)” and the “FBC-A (µM): concentration” value (E. coli) was 1.6 µM.
